# In PubChem BioAssay (NCI):
#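 Tested at 5 concentrations; 48 h exposure; 96-well plates; endpoints linearly interpolated, else capped at highest concentration. GI50 = concentration required for 50% inhibition of growth. TGI: total growth inhibition.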
# Experiments:
# Assay in all cases: growth of human tumour cells (NCI), 48 h
# [1] = test system: IGROV1 ovarian
# [2] = test system: HS 578T breast
# [3] = test system: UACC-257 melanoma
# [4] = test system: NCI-H522 lung
# [5] = test system: NCI-H23 lung
# [6] = test system: KM12 colon
# [7] = test system: SF-295 CNS
# [8] = test system: HCT-15 colon
# [9] = test system: DU-145 prostate
# [10] = test system: TK-10 renal
# [11] = test system: SNB-75 CNS
# [12] = test system: T-47D breast
# [13] = test system: NCI/ADR-RES ovarian
# [14] = test system: SW-620 colon
# [15] = test system: HCT-116 colon
# [16] = test system: CCRF-CEM leukemia
# [17] = test system: SK-MEL-28 melanoma
# [18] = test system: 786-0 renal
# [19] = test system: HOP-62 NSCLC
# [20] = test system: BT-549 breast
# [21] = test system: SN12C renal
# [22] = test system: RXF 393 renal
# [23] = test system: SF-268 CNS
# [24] = test system: SNB-19 CNS
# [25] = test system: HOP-92 NSCLC
# [26] = test system: UACC-62 melanoma
# [27] = test system: A498 renal
# [28] = test system: MDA-MB-231 breast
# [29] = test system: OVCAR-8 ovarian
compound,measurement,setting,value
C[C@H]1[C@H](C)CC[C@]2(C(=O)O)CC[C@]3(C)C(=CC[C@@H]4[C@@]5(C)C/C(=C/c6ccco6)C(=O)C(C)(C)[C@@H]5CC[C@]43C)[C@H]12,GI50,[1],5.19 µM
same,TGI,[1],21.7 µM
same,GI50,[2],11.6 µM
same,TGI,[2],> 100 µM
same,GI50,[3],6.49 µM
same,TGI,[3],29.1 µM
same,GI50,[4],6.35 µM
same,TGI,[4],23.6 µM
same,GI50,[5],3.85 µM
same,TGI,[5],16.3 µM
same,GI50,[6],3.82 µM
same,TGI,[6],15.6 µM
same,GI50,[7],3.72 µM
same,TGI,[7],15.5 µM
same,GI50,[8],2.95 µM
same,TGI,[8],12.1 µM
same,GI50,[9],6.41 µM
same,TGI,[9],30.9 µM
same,GI50,[10],7.9 µM
same,TGI,[10],26.3 µM
same,GI50,[11],18.6 µM
same,TGI,[11],71.8 µM
same,GI50,[12],3.79 µM
same,TGI,[12],33.8 µM
same,GI50,[13],3.84 µM
same,TGI,[13],16.1 µM
same,GI50,[14],4.19 µM
same,TGI,[14],19.5 µM
same,GI50,[15],3.1 µM
same,TGI,[15],11.7 µM
same,GI50,[16],3.52 µM
same,TGI,[16],16.8 µM
same,GI50,[17],4.81 µM
same,TGI,[17],17.5 µM
same,GI50,[18],4.09 µM
same,TGI,[18],19.1 µM
same,GI50,[19],3.78 µM
same,TGI,[19],16.9 µM
same,GI50,[20],4.76 µM
same,TGI,[20],18.9 µM
same,GI50,[21],3.7 µM
same,TGI,[21],18.9 µM
same,GI50,[22],4.46 µM
same,TGI,[22],16.3 µM
same,GI50,[23],5.59 µM
same,TGI,[23],22.1 µM
same,GI50,[24],5.07 µM
same,TGI,[24],23.2 µM
same,GI50,[25],2.54 µM
same,TGI,[25],12.5 µM
same,GI50,[26],2.86 µM
same,TGI,[26],13 µM
same,GI50,[27],11.5 µM
same,TGI,[27],33.8 µM
same,GI50,[28],6.72 µM
same,TGI,[28],24.1 µM
same,GI50,[29],4.63 µM
same,TGI,[29],24.1 µM
